Source: patent US11771709B2, “ALK protein degradation agent and anti-tumor application thereof” (ShanghaiTech University, priority 2017, dated 2023)

system: SR (NPM-ALK) cells; assay: Growth inhibition IC50 in ALCL SR cells (CCK8/WST, 72 hours); format: cell-based; conditions: not given

Structure (SMILES)	IC50 [nM]
CCc1cc2c(cc1N1CCNCC1)C(C)(C)c1[nH]c3cc(C#N)ccc3c1C2=O [Alectinib Analogue A, 9-ethyl-6,6-dimethyl-11-oxo-8-(piperazin-1-yl)-6,11-dihydro-5H-benzo[b]carbazole-3-carbonitrile, reference compound]	2.4

same assay, conditions: 72 h, SR cells, WST; Brigatinib-based PROTAD molecules (Table 3)

Structure (SMILES)	IC50 [nM]
COc1cc(N2CCC(N3CCN(C(=O)CCCCNc4cccc5c4CN(C4CCC(=O)NC4=O)C5=O)CC3)CC2)ccc1Nc1ncc(Cl)c(Nc2ccccc2P(C)(C)=O)n1 (centres unmarked) [SIAIS219156, 3-(4-((5-(4-(1-(4-((5-chloro-4-((2-(dimethylphosphoryl)phenyl)amino)pyrimidin-2-yl)amino)-3-methoxyphenyl)piperidin-4-yl)piperazin-1-yl)-5-oxopentyl)amino)-1-oxoisoindolin-2-yl)piperidine-2,6-dione]	3.09 ± 0.2
COc1cc(N2CCC(NC(=O)CCCCCNc3cccc4c3CN(C3CCC(=O)NC3=O)C4=O)CC2)ccc1Nc1ncc(Cl)c(Nc2ccccc2P(C)(C)=O)n1 (centres unmarked) [SIAIS219153, N-(1-(4-((5-chloro-4-((2-(dimethylphosphoryl)phenyl)amino)pyrimidin-2-yl)amino)-3-methoxyphenyl)piperidin-4-yl)-6-((2-(2,6-dioxopiperidin-3-yl)-1-oxoisoindolin-4-yl)amino)hexanamide]	3.12 ± 0.2
COc1cc(N2CCC(NC(=O)CCCCCCNc3cccc4c3CN(C3CCC(=O)NC3=O)C4=O)CC2)ccc1Nc1ncc(Cl)c(Nc2ccccc2P(C)(C)=O)n1 (centres unmarked) [SIAIS219154, N-(1-(4-((5-chloro-4-((2-(dimethylphosphoryl)phenyl)amino)pyrimidin-2-yl)amino)-3-methoxyphenyl)piperidin-4-yl)-7-((2-(2,6-dioxopiperidin-3-yl)-1-oxoisoindolin-4-yl)amino)heptanamide]	3.8 ± 0.2
COc1cc(N2CCC(N(C)C(=O)CCCNc3cccc4c3C(=O)N(C3CCC(=O)NC3=O)C4=O)CC2)ccc1Nc1ncc(Cl)c(Nc2ccccc2P(C)(C)=O)n1 (centres unmarked) [SIAIS220030, N-(1-(4-((5-chloro-4-((2-(dimethylphosphoryl)phenyl)amino)pyrimidin-2-yl)amino)-3-methoxyphenyl)piperidin-4-yl)-4-((2-(2,6-dioxopiperidin-3-yl)-1,3-dioxoisoindolin-4-yl)amino)-N-methylbutanamide]	5.8
COc1cc(N2CCC(NC(=O)CCc3cccc4c3C(=O)N(C3CCC(=O)NC3=O)C4=O)CC2)ccc1Nc1ncc(Cl)c(Nc2ccccc2P(C)(C)=O)n1 (centres unmarked) [SIAIS219170, N-(1-(4-((5-chloro-4-((2-(dimethylphosphoryl)phenyl)amino)pyrimidin-2-yl)amino)-3-methoxyphenyl)piperidin-4-yl)-3-(2-(2,6-dioxopiperidin-3-yl)-1,3-dioxoisoindolin-4-yl)propanamide]	10.8 ± 1.4
COc1cc(N2CCC(NC(=O)CNc3cccc4c3CN(C3CCC(=O)NC3=O)C4=O)CC2)ccc1Nc1ncc(Cl)c(Nc2ccccc2P(C)(C)=O)n1 (centres unmarked) [SIAIS219151, N-(1-(4-((5-chloro-4-((2-(dimethylphosphoryl)phenyl)amino)pyrimidin-2-yl)amino)-3-methoxyphenyl)piperidin-4-yl)-2-((2-(2,6-dioxopiperidin-3-yl)-1-oxoisoindolin-4-yl)amino)acetamide]	102 ± 4.8
COc1cc(N2CCC(N3CCN(C(=O)CCCCCNc4cccc5c4CN(C4CCC(=O)NC4=O)C5=O)CC3)CC2)ccc1Nc1ncc(Cl)c(Nc2ccccc2P(C)(C)=O)n1 (centres unmarked) [SIAIS219157, 3-(4-((6-(4-(1-(4-((5-chloro-4-((2-(dimethylphosphoryl)phenyl)amino)pyrimidin-2-yl)amino)-3-methoxyphenyl)piperidin-4-yl)piperazin-1-yl)-6-oxohexyl)amino)-1-oxoisoindolin-2-yl)piperidine-2,6-dione]	1.99 ± 0.2

same assay, conditions: SR cells, WST, 72 hours; Brigatinib-based PROTAD molecules (Table 3)

Structure (SMILES)	IC50 [nM]
COc1cc(N2CCNCC2)ccc1Nc1ncc(Cl)c(Nc2ccccc2P(C)(C)=O)n1 [Brigatinib Analogue A(SIAIS1197135), (2-((5-chloro-2-((2-methoxy-4-(piperazin-1-yl)phenyl)amino)pyrimidin-4-yl)amino)phenyl) dimethylphosphine oxide]	1.6 ± 1

same assay, conditions: SR cells, WST; Alectinib based ALK PROTAD compounds (Table 4)

Structure (SMILES)	IC50 [nM]
CCc1cc2c(cc1N1CCC(N3CCN(C(=O)CCCCC(=O)N[C@H](C(=O)N4C[C@H](O)C[C@H]4C(=O)NCc4ccc(-c5scnc5C)cc4)C(C)(C)C)CC3)CC1)C(C)(C)c1[nH]c3cc(C#N)ccc3c1C2=O [SIAIS219015, (2S,4R)-1-((S)-2-(6-(4-(1-(3-cyano-9-ethyl-6,6-dimethyl-11-oxo-6,11-dihydro-5H-benzo[b]carbazol-8-yl)piperidin-4-yl)piperazin-1-yl)-6-oxohexanamido)-3,3-dimethylbutanoyl)-4-hydroxy-N-(4-(4-methylthiazol-5-yl)benzyl)pyrrolidine-2-carboxamide]	110
CCc1cc2c(cc1N1CCC(NC(=O)CCCCC(=O)N[C@H](C(=O)N3C[C@H](O)C[C@H]3C(=O)NCc3ccc(-c4scnc4C)cc3)C(C)(C)C)CC1)C(C)(C)c1[nH]c3cc(C#N)ccc3c1C2=O [SIAIS219020, N1-(1-(3-cyano-9-ethyl-6,6-dimethyl-11-oxo-6,11-dihydro-5H-benzo[b]carbazol-8-yl)piperidin-4-yl)-N6-((S)-1-((2S,4R)-4-hydroxy-2-((4-(4-methylthiazol-5-yl)benzyl)carbamoyl)pyrrolidin-1-yl)-3,3-dimethyl-1-oxobutan-2-yl)adipamide]	30.3
CCc1cc2c(cc1N1CCC(NC(=O)CCCCCNc3cccc4c3C(=O)N(C3CCC(=O)NC3=O)C4=O)CC1)C(C)(C)c1[nH]c3cc(C#N)ccc3c1C2=O (centres unmarked) [SIAIS219011, N-(1-(3-cyano-9-ethyl-6,6-dimethyl-11-oxo-6,11-dihydro-5H-benzo[b]carbazol-8-yl)piperidin-4-yl)-6-((2-(2,6-dioxopiperidin-3-yl)-1,3-dioxoisoindolin-4-yl)amino)hexanamide]	49.9
CCc1cc2c(cc1N1CCN(C(=O)CCOCCOCCOCCC(=O)N[C@H](C(=O)N3C[C@H](O)C[C@H]3C(=O)NCc3ccc(-c4scnc4C)cc3)C(C)(C)C)CC1)C(C)(C)c1[nH]c3cc(C#N)ccc3c1C2=O [SIAIS164037, (2S,4R)-1-((S)-2-(tert-butyl)-16-(4-(3-cyano-9-ethyl-6,6-dimethyl-11-oxo-6,11-dihydro-5H-benzo[b]carbazol-8-yl)piperazin-1-yl)-4,16-dioxo-7,10,13-trioxa-3-azahexadecanoyl)-4-hydroxy-N-(4-(4-methylthiazol-5-yl)benzyl)pyrrolidine-2-carboxamide]	153
CCc1cc2c(cc1N1CCC(N3CCNCC3)CC1)C(C)(C)c1[nH]c3cc(C#N)ccc3c1C2=O [Alectinib Analogue C(SIAIS184192), 9-ethyl-6,6-dimethyl-11-oxo-8-(4-(piperazin-1-yl)piperidin-1-yl)-6,11-dihydro-5H-benzo[b]carbazole-3-carbonitrile]	19.1
CCc1cc2c(cc1N1CCC(NC(=O)CNc3cccc4c3C(=O)N(C3CCC(=O)NC3=O)C4=O)CC1)C(C)(C)c1[nH]c3cc(C#N)ccc3c1C2=O (centres unmarked) [SIAIS219001, N-(1-(3-cyano-9-ethyl-6,6-dimethyl-11-oxo-6,11-dihydro-5H-benzo[b]carbazol-8-yl)piperidin-4-yl)-2-((2-(2,6-dioxopiperidin-3-yl)-1,3-dioxoisoindolin-4-yl)amino)acetamide]	21.3
CCc1cc2c(cc1N1CCC(NC(=O)CCCCCCCCC(=O)N[C@H](C(=O)N3C[C@H](O)C[C@H]3C(=O)NCc3ccc(-c4scnc4C)cc3)C(C)(C)C)CC1)C(C)(C)c1[nH]c3cc(C#N)ccc3c1C2=O [SIAIS219021, N1-(1-(3-cyano-9-ethyl-6,6-dimethyl-11-oxo-6,11-dihydro-5H-benzo[b]carbazol-8-yl)piperidin-4-yl)-N10-((S)-1-((2S,4R)-4-hydroxy-2-((4-(4-methylthiazol-5-yl)benzyl)carbamoyl)pyrrolidin-1-yl)-3,3-dimethyl-1-oxobutan-2-yl)decanediamide]	115
CCc1cc2c(cc1N1CCC(N3CCN(C(=O)CCOCCOCCNc4cccc5c4C(=O)N(C4CCC(=O)NC4=O)C5=O)CC3)CC1)C(C)(C)c1[nH]c3cc(C#N)ccc3c1C2=O (centres unmarked) [SIAIS219018, 8-(4-(4-(3-(2-(2-((2-(2,6-dioxopiperidin-3-yl)-1,3-dioxoisoindolin-4-yl)amino)ethoxy)ethoxy)propanoyl)piperazin-1-yl)piperidin-1-yl)-9-ethyl-6,6-dimethyl-11-oxo-6,11-dihydro-5H-benzo[b]carbazole-3-carbonitrile]	13.3
CCc1cc2c(cc1N1CCC(N3CCN(C(=O)CCCNc4cccc5c4C(=O)N(C4CCC(=O)NC4=O)C5=O)CC3)CC1)C(C)(C)c1[nH]c3cc(C#N)ccc3c1C2=O (centres unmarked) [SIAIS219003, 8-(4-(4-(4-((2-(2,6-dioxopiperidin-3-yl)-1,3-dioxoisoindolin-4-yl)amino)butanoyl)piperazin-1-yl)piperidin-1-yl)-9-ethyl-6,6-dimethyl-11-oxo-6,11-dihydro-5H-benzo[b]carbazole-3-carbonitrile]	21.8
CCc1cc2c(cc1N1CCC(N3CCN(C(=O)CCCCCNc4cccc5c4C(=O)N(C4CCC(=O)NC4=O)C5=O)CC3)CC1)C(C)(C)c1[nH]c3cc(C#N)ccc3c1C2=O (centres unmarked) [SIAIS219004, 8-(4-(4-(6-((2-(2,6-dioxopiperidin-3-yl)-1,3-dioxoisoindolin-4-yl)amino)hexanoyl)piperazin-1-yl)piperidin-1-yl)-9-ethyl-6,6-dimethyl-11-oxo-6,11-dihydro-5H-benzo[b]carbazole-3-carbonitrile]	36.8
CCc1cc2c(cc1N1CCN(C(=O)CCCCCC(=O)N[C@H](C(=O)N3C[C@H](O)C[C@H]3C(=O)NCc3ccc(-c4scnc4C)cc3)C(C)(C)C)CC1)C(C)(C)c1[nH]c3cc(C#N)ccc3c1C2=O [SIAIS164096, (2S,4R)-1-((S)-2-(7-(4-(3-cyano-9-ethyl-6,6-dimethyl-11-oxo-6,11-dihydro-5H-benzo[b]carbazol-8-yl)piperazin-1-yl)-7-oxoheptanamido)-3,3-dimethylbutanoyl)-4-hydroxy-N-(4-(4-methylthiazol-5-yl)benzyl)pyrrolidine-2-carboxamide]	79.5
